Assay results published in the NIST ThermoML archive (doi:10.1016/j.jct.2018.08.005).

Test: xn = mol fraction of the nth substance listed
Settings: Liquid; for mass density: Vibrating tube method; for speed of sound: Frequency=3 MHz, Pulse-echo method

CCOC(F)(C(F)(F)C(F)(F)C(F)(F)F)C(F)(C(F)(F)F)C(F)(F)F (stereo not given) [2-trifluoromethyl-3-ethoxydodecafluorohexane] + CC(C)OC(C)C
Settings	mass density, 333.15 K [kg/m3]	mass density, 343.15 K [kg/m3]	mass density, 353.15 K [kg/m3]	mass density, 363.15 K [kg/m3]	mass density, 373.15 K [kg/m3]	mass density, 383.15 K [kg/m3]	mass density, 393.15 K [kg/m3]	speed of sound, 343.15 K [m/s]	speed of sound, 353.15 K [m/s]
100 kPa, x1 = 0.375	–	1091.4	–	–	–	–	–	588	–
100 kPa, x1 = 0.5	–	1197	–	–	–	–	–	563	–
100 kPa, x1 = 0.625	–	1291.8	1271.2	–	–	–	–	550.5	–
100 kPa, x1 = 0.75	–	1376.3	1355.1	–	–	–	–	540.2	512.6
10000 kPa, x1 = 0.25	–	1000.6	986.5	972.2	957.5	942.8	927.9	–	–
10000 kPa, x1 = 0.375	–	1121.3	1105.6	1089.6	1074	1058	1041.6	–	–
10000 kPa, x1 = 0.5	–	1229.2	1212.9	1196.4	1179.6	1162.6	1145.1	–	–
10000 kPa, x1 = 0.625	–	1325.6	1308.2	1290.3	1272.3	1254.2	1235.9	–	–
10000 kPa, x1 = 0.75	–	1411.1	1393	1374.4	1355.8	1336.7	1317.8	–	–
20000 kPa, x1 = 0.25	–	1021.9	1009.3	996.8	983.8	971.3	958.4	792.6	767.9
20000 kPa, x1 = 0.375	–	1145.1	1131.2	1117.1	1103.6	1089.6	1075.7	745.6	724.5
20000 kPa, x1 = 0.5	–	1254.7	1240.1	1225.6	1210.9	1196.3	1181.2	714	692.8
20000 kPa, x1 = 0.625	–	1352.4	1337	1321.2	1305.3	1289.7	1273.8	697.6	676.5
20000 kPa, x1 = 0.75	–	1438.8	1422.7	1406.2	1389.8	1373.1	1356.7	681.6	660.7
30000 kPa, x1 = 0.25	–	1039.6	1028.2	1016.8	1005	993.8	982.1	–	–
30000 kPa, x1 = 0.375	–	1164.8	1152.3	1139.3	1127.2	1114.7	1102.2	–	–
30000 kPa, x1 = 0.5	–	1275.9	1262.7	1249.3	1236	1223	1209.4	–	–
30000 kPa, x1 = 0.625	–	1374.8	1360.8	1346.4	1331.8	1317.8	1303.4	–	–
30000 kPa, x1 = 0.75	–	1462	1447.4	1432.1	1417.3	1402	1387.3	–	–
40000 kPa, x1 = 0.25	–	1055.2	1044.4	1033.8	1022.8	1012.6	1001.8	911.7	889.5
40000 kPa, x1 = 0.375	–	1182.1	1170.2	1158.1	1147.1	1135.6	1124	858.7	841.4
40000 kPa, x1 = 0.5	–	1294.4	1281.9	1269.5	1257.2	1245.4	1232.7	822.8	804.5
40000 kPa, x1 = 0.625	–	1394.4	1381.2	1367.8	1354.2	1341.5	1328	803.3	785.2
40000 kPa, x1 = 0.75	–	1482.3	1468.5	1454.3	1440.5	1426.5	1412.8	783.8	765.7
50000 kPa, x1 = 0.25	–	1068.8	1058.7	1048.7	1038.4	1028.9	1018.7	–	–
50000 kPa, x1 = 0.375	–	1197.3	1186	1174.8	1164.3	1153.6	1142.7	–	–
50000 kPa, x1 = 0.5	–	1310.8	1298.8	1287.3	1275.8	1264.7	1252.8	–	–
50000 kPa, x1 = 0.625	–	1411.7	1399.2	1386.6	1373.8	1361.9	1349.1	–	–
50000 kPa, x1 = 0.75	–	1500.3	1487.3	1473.8	1460.8	1447.6	1434.8	–	–
60000 kPa, x1 = 0.25	–	1081.1	1071.6	1062	1052.3	1043.2	1033.7	1007.3	986.5
60000 kPa, x1 = 0.375	–	1210.9	1200.3	1189.6	1179.7	1169.5	1159.3	949.5	935.6
60000 kPa, x1 = 0.5	–	1325.4	1314.2	1303.1	1292.2	1281.8	1270.5	911	894
60000 kPa, x1 = 0.625	–	1427.3	1415.5	1403.4	1391.2	1379.9	1368	889.2	872.6
60000 kPa, x1 = 0.75	–	1516.5	1504.2	1491.2	1478.9	1466.4	1454.2	867	850.4
70000 kPa, x1 = 0.25	–	1092.4	1083.3	1074.1	1064.8	1056.2	1047.2	–	–
70000 kPa, x1 = 0.375	–	1223.4	1213.3	1203	1193.7	1184	1174.3	–	–
70000 kPa, x1 = 0.5	–	1338.9	1328.1	1317.5	1307.2	1297.2	1286.5	–	–
70000 kPa, x1 = 0.625	–	1441.4	1430.3	1418.6	1407	1396.3	1385.1	–	–
70000 kPa, x1 = 0.75	–	1531.3	1519.5	1507	1495.3	1483.3	1471.7	–	–
80000 kPa, x1 = 0.25	–	1102.8	1094.2	1085.2	1076.3	1068.1	1059.3	1089.6	–
80000 kPa, x1 = 0.375	–	1234.9	1225.2	1215.5	1206.4	1197.2	1187.7	1026.7	1015.6
80000 kPa, x1 = 0.5	–	1351.3	1340.9	1330.8	1320.8	1311.3	1300.8	987	971
80000 kPa, x1 = 0.625	–	1454.6	1443.9	1432.6	1421.5	1411.4	1400.3	963.1	947.8
80000 kPa, x1 = 0.75	–	1544.9	1533.7	1521.5	1510.3	1498.8	1487.5	938.2	923.1
90000 kPa, x1 = 0.25	–	1112.5	1104.1	1095.5	1086.9	1079	1070.8	–	–
90000 kPa, x1 = 0.375	–	1245.7	1236.2	1227	1218.3	1209.3	1200.4	–	–
90000 kPa, x1 = 0.5	–	1362.8	1352.7	1343.1	1333.5	1324.3	1314.4	–	–
90000 kPa, x1 = 0.625	–	1466.8	1456.5	1445.6	1435	1425	1414.7	–	–
90000 kPa, x1 = 0.75	–	1557.6	1546.8	1534.9	1524.3	1513.1	1502.4	–	–
100000 kPa, x1 = 0.25	–	1121.5	1113.4	1105.1	1096.9	1089.2	1081.3	1161.8	1142.6
100000 kPa, x1 = 0.375	–	1255.8	1246.6	1237.5	1229.2	1220.6	1211.9	1095.1	–
100000 kPa, x1 = 0.5	–	1373.5	1363.8	1354.5	1345.3	1336.3	1326.8	1054.1	1039.1
100000 kPa, x1 = 0.625	–	1478.2	1468.2	1457.8	1447.4	1437.8	1428	1028.7	1014.4
100000 kPa, x1 = 0.75	1580.9	1569.5	1559	1547.4	1537.2	1526.4	1516	1001.7	987.2
110000 kPa, x1 = 0.25	1138.5	1130.1	1122.1	1114.2	1106.1	1098.7	1091	–	–
110000 kPa, x1 = 0.375	1274.2	1265.3	1256.3	1247.5	1239.6	1231.2	1222.8	–	–
110000 kPa, x1 = 0.5	1393.9	1383.8	1374.2	1365.3	1356.2	1347.6	1338.4	–	–
110000 kPa, x1 = 0.625	1499.9	1489.1	1479.2	1469.1	1459.1	1449.8	1440.1	–	–
110000 kPa, x1 = 0.75	1591.8	1580.8	1570.4	1559.3	1549.4	1538.8	1528.7	–	–
120000 kPa, x1 = 0.25	1146.4	1138.2	1130.4	1122.7	1114.8	1107.7	1100.3	–	–
120000 kPa, x1 = 0.375	1282.9	1274.2	1265.4	1257.1	1249.3	1241.3	1233	–	–
120000 kPa, x1 = 0.5	1403.2	1393.3	1384.1	1375.4	1366.6	1358.3	1349.4	–	–
120000 kPa, x1 = 0.625	1509.7	1499.3	1489.7	1479.8	1470.1	1461.2	1451.6	–	–
120000 kPa, x1 = 0.75	1602.1	1591.4	1581.4	1570.4	1560.8	1550.7	1540.7	–	–
130000 kPa, x1 = 0.25	1153.9	1145.9	1138.3	1130.7	1123.1	1116.1	1108.9	–	–
130000 kPa, x1 = 0.375	1291.2	1282.7	1274.2	1265.9	1258.3	1250.6	1242.6	–	–
130000 kPa, x1 = 0.5	1412.1	1402.5	1393.5	1385	1376.4	1368.1	1359.7	–	–
130000 kPa, x1 = 0.625	1519.2	1509.1	1499.7	1490	1480.5	1471.8	1462.5	–	–
130000 kPa, x1 = 0.75	1611.9	1601.6	1591.7	1580.9	1571.6	1561.7	1552.1	–	–
140000 kPa, x1 = 0.25	1160.9	1153.3	1145.6	1138.4	1130.8	1124.2	1117	–	–
140000 kPa, x1 = 0.375	1299	1290.7	1282.4	1274.6	1267	1259.6	1251.6	–	–
140000 kPa, x1 = 0.5	1420.5	1411.2	1402.4	1394.2	1385.7	1377.9	1369.3	–	–
140000 kPa, x1 = 0.625	1528.1	1518.2	1509	1499.7	1490.4	1481.9	1472.9	–	–
140000 kPa, x1 = 0.75	1621.2	1611.2	1601.4	1591	1581.8	1572.3	1562.7	–	–
